Results as given in patent US10150792B2, “Bismuth-containing compounds, coordination polymers, methods for modulating pharmacokinetic properties of biologically active agents, and methods for treating patients” (priority 2010, dated 2018).

Experiments:
[1] = high orally administered doses; cited from earlier work
in vivo = conditions: rat
Procedure: Method for Rat Pharmacokinetic Studies: Rat “feed and bleed” studies were performed with LD and synthetically prepared LD:metal complexes wherein key PK parameters, such as maximum concentration (Cmax), AUC, and time of maximum concentration (tmax) were measured vis-à-vis the reference drug, LD.
In each experiment, male Sprague-Dawley rats with jugular vein catheters (250-300 g; n=5-10) are used. These rats were obtained from a commercial source (Harlan Laboratory Animals, Dublin, Va.) and housed individually. Water was available ad libitum. Rats were fed certified rodent chow ad libitum. After arrival, the health of rats was assessed and animals were placed in quarantine for a minimum of five days during which time general health was assessed. At the end of quarantine, rats were moved to permanent animal quarters for access and study.
All studies employed oral dosing using size 9 rodent gelatin capsules from Torpac (Fairfield, N.J.). After fasting overnight, the rats are dosed at time zero with periodic blood sampling from the catheter (5-8 time points between 0 and 24 hours). Blood (200-300 μL) is drawn and collected in heparinized tubes. Plasma is separated by centrifugation and stored at −20° C. until work-up. Plasma samples are then treated according to developed methodology (e.g., FEBS Lett., 2002, 524 (1-3), 199-203), and analyzed (LC/MS/MS) for drug concentrations. Average plasma values (±SEM) for each time are calculated and PK parameters, including Cmax, tmax, and total amount absorbed (AUC0-6h), are determined using standard software.
Each study employs a crossover design whereby the LD and a metal:LD complex are tested in the same rats with a 5-day wash-out period separating the two experiments.

Compound: O=C(O)C(Cl)Cl [DCA, dichloroacetate]
- Fraction absorbed [1]: 100%

Compound: N[C@@H](Cc1ccc(O)c(O)c1)C(=O)O [LD, levodopa, reference compound]
- Cmax (in vivo; male, Sprague-Dawley, in vivo, po): 17 µM
- Tmax (in vivo; male, Sprague-Dawley, in vivo, po, 20 mg/kg): 20 min

Compound: tris(LD)bismuth oxide [Bi(O)(dopa)3]
- Course of LD plasma levels (in vivo; FIG. 13, oral, equivalent to 20 mg/kg LD + carbidopa 10 mg/kg, sampling to 3 hours): remained at or near their peak levels for the duration of the study
- LD plasma level at 3 hours (in vivo; FIGS. 13 and 14, oral, equivalent to 20 mg/kg LD + carbidopa 10 mg/kg): 10 nmol/mL
